Patent US20230382865A1, “HISTONE DEMETHYLASE 5 INHIBITORS AND USES THEREOF” (DANA-FARBER CANCER INSTITUTE, INC., priority 2018, published 2023)
pIC50: −log10 of the molar value. Where “and” joins values, the source holds several entries; their conditions need not be identical. Equal entries are not always repeated.

Tests used:
KDM5B = KDM5B (Homo sapiens, UniProt Q9UGL1); assay: KDM5B alphascreen activity assay; format: biochemical; settings: Table 1, KDM5B alphascreen activity assay
Procedure: All subsequent steps were carried out in assay buffer (50 mM HEPES, pH 7.5, 0.1% (wt/vol) BSA and 0.01% (vol/vol) Tween-20). […] The final concentration of DMSO was 1%. […] Data were normalized to the (no-enzyme) control, and the IC50 values were determined via nonlinear regression curve fit using GraphPad Prism 7.

luciferized molp8 cells = assay: In vivo mouse study, bioluminescence imaging (BLI) of luciferized molp8 cells; parameters: species or system Mice; reference not given here; settings: one individual mouse (cage, EP)
Procedure: Mice were injected intravenously with luciferized molp8 cells. Half million cells per mice. After 1 week, the tumor was observed using bioluminescence imaging (BLI). The normalized total flux was measured over 17 days (FIG. 12; Table 5) Mice were randomized into control and treatment. Treatment lasted for 21 days. Animals with 15% weight loss was terminated.

[1] = test system: MYC target genes in MM.1S cells; assay: Gene expression profile by RNA-seq with gene set enrichment analysis in MM.1S cells; format: cell-based, human; settings: RNA-seq after treatment in MM.1S cells
Source text: To clarify the molecular mechanism whereby KDM5A mediates MM cell growth, the gene expression profile using RNA-seq after the treatment with pck82 in MM.1S cells was examined.

H3K4me3 mark = assay: ChIP-seq analysis of H3K4me3 mark; format: cell-based

Chain of KDM5B (Q9UGL1 whole entry): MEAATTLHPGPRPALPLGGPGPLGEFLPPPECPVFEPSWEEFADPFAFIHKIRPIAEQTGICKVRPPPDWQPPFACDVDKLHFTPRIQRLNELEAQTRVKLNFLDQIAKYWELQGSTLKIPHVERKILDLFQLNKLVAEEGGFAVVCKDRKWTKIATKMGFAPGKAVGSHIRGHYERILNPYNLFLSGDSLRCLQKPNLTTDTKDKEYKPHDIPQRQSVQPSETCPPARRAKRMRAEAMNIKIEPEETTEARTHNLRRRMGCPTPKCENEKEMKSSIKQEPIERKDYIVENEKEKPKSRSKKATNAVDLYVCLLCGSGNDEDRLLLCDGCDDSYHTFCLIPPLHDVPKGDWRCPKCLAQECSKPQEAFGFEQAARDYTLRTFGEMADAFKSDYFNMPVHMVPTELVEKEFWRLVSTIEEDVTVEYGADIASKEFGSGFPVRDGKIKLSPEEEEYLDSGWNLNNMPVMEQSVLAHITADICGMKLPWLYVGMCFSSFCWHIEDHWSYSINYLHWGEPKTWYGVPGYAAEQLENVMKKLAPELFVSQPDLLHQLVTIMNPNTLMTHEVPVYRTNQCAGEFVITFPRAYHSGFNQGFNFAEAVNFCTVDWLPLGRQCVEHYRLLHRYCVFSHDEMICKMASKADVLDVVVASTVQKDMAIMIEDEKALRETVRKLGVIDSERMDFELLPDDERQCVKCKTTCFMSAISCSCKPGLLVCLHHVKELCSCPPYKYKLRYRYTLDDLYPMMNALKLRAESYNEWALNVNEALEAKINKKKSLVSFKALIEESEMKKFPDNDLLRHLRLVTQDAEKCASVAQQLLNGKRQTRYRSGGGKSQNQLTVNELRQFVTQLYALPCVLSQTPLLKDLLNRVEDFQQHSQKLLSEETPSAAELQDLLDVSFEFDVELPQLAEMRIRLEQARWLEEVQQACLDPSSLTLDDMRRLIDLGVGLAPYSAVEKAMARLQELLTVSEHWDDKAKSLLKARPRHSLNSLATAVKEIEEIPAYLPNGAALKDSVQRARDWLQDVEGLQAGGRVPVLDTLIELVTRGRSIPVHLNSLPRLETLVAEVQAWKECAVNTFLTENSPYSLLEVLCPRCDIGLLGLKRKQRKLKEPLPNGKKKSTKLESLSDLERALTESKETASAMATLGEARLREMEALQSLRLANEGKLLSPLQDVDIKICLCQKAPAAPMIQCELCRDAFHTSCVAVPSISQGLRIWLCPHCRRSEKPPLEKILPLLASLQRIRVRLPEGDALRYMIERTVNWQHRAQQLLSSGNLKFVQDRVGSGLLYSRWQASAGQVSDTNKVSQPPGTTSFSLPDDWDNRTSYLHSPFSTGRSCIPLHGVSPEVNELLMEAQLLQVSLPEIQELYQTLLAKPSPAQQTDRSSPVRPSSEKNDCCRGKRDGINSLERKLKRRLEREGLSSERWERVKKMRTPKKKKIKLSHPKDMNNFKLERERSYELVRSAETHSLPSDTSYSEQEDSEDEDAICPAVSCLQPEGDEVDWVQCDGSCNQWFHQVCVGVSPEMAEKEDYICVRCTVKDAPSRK

Row | pIC50 (KDM5B) | SMILES | Normalized total flux from BLI imaging (luciferized molp8 cells; Day 0) | Normalized total flux from BLI imaging (luciferized molp8 cells; Day 3) | Normalized total flux from BLI imaging (luciferized molp8 cells; Day 7) | Normalized total flux from BLI imaging (luciferized molp8 cells; Day 10) | Normalized total flux from BLI imaging (luciferized molp8 cells; Day 14) | Normalized total flux from BLI imaging (luciferized molp8 cells; Day 17) | Normalized total flux from BLI imaging (luciferized molp8 cells; Day 21) | expression of MYC target genes (gene set enrichment analysis) [1] | H3K4me3 mark, global (H3K4me3 mark; ChIP-seq after treatment) | H3K4me3 mark at the loci of MYC and its targets (H3K4me3 mark; ChIP-seq, targets whose expression is down-regulated after treatment)
1 | 5.10 | CC(C)c1c(-c2ccccc2)[nH]c2c(C#N)cnn2c1=O [CPI455] | – | – | – | – | – | – | – | – | – | –
2 | – | CCN(CCN(C)C)C(=O)CNCc1cc(C(=O)Oc2ccc(OC(C)C)cc2OC(C)C)ccn1 [PCK82] | 1 | 3.764 and 4.5 and 4.255 and 3.625 and 2.035 and 2.296 and 3.238 and 0.2149 and 0.3339 | 0.5646 and 9.722 and 8.546 and 8.656 and 13.51 and 1.677 and 8.169 and 0.2301 and 39.37 | 6.63 and 19.33 and 0.422 and 44.375 and 23.38 and 25.97 and 24.97 and 1.029 and 6.22 | 191.7 and 165.6 and 135.1 and 93.75 and 380.3 and 314.2 and 275.1 and 75.66 and 5.654 | 306.3 and 4.861 and 358.2 and 465.625 and 258.8 and 133.2 and 277.2 and 359 and 565.6 | 45 and 3.404 and 435.5 and 58.66 and 1309 and 1224 and 847.4 and 121.6 and 1078 | decreased expression of MYC target genes | globally increased H3K4me3 mark | did not increase this mark
